± gives the expanded uncertainty stated by the source.
Conditions: 101.33 kPa, Liquid
[1] = 283.15 K, Vibrating tube method
[2] = 298.15 K, Vibrating tube method
[3] = 323.15 K, Vibrating tube method
[4] = 348.15 K, Vibrating tube method

For CCCn1cc[n+](C)c1C.O=S(=O)([C-](S(=O)(=O)C(F)(F)F)S(=O)(=O)C(F)(F)F)C(F)(F)F, the mass density [1] was 1612 ± 3 kg/m3, the mass density [2] was 1597 ± 3 kg/m3 and the mass density [3] was 1582 ± 3 kg/m3. It also gave a mass density [4] of 1567 ± 3 kg/m3.
In the case of CCn1cc[n+](C)c1.O=S(=O)([N-]S(=O)(=O)C(F)(F)F)C(F)(F)F, the mass density [1] is reported as 1534 ± 5 kg/m3, the mass density [2] is reported as 1517 ± 5 kg/m3 and the mass density [3] is reported as 1492 ± 4 kg/m3. For the same compound, the mass density [4] was 1467 ± 4 kg/m3.
Work on CCCCn1cc[n+](C)c1.O=S(=O)([O-])C(F)(F)C(F)F yielded a mass density (301.45 K, Pycnometric method) of 1324 ± 4 kg/m3.
With CCCCCCCn1cc[n+](C)c1.O=S(=O)([O-])C(F)(F)C(F)F the mass density (301.15 K, Pycnometric method) was 1274 ± 4 kg/m3.
In the case of CCC[n+]1ccn(C)c1C.O=S(=O)([N-]S(=O)(=O)C(F)(F)F)C(F)(F)F, the mass density (299.15 K, Pycnometric method) is reported as 1481 ± 3 kg/m3.
Work on CCC[n+]1cccc(C)c1.O=S(=O)([N-]S(=O)(=O)C(F)(F)F)C(F)(F)F yielded a mass density [1] of 1460 ± 3 kg/m3, a mass density [2] of 1444 ± 3 kg/m3 and a mass density [3] of 1420 ± 3 kg/m3. For the same compound, the mass density [4] was 1397 ± 3 kg/m3.
With CCn1cc[n+](C)c1.O=S(=O)([N-]S(=O)(=O)C(F)(F)C(F)(F)F)C(F)(F)C(F)(F)F the mass density [1] was 1608 ± 3 kg/m3, the mass density [2] was 1590 ± 3 kg/m3 and the mass density [3] was 1562 ± 3 kg/m3. The mass density [4] was 1534 ± 3 kg/m3.
In the case of CCn1cc[n+](C)c1.O=S(=O)([O-])C(F)(F)C(F)F, the mass density (301.45 K, Pycnometric method) is reported as 1502 ± 5 kg/m3.
CCCC[n+]1cccc(C)c1.O=S(=O)([N-]S(=O)(=O)C(F)(F)F)C(F)(F)F showed a mass density [1] of 1428 ± 3 kg/m3, a mass density [2] of 1412 ± 3 kg/m3 and a mass density [3] of 1389 ± 3 kg/m3. The mass density [4] was 1367 ± 3 kg/m3.
Work on CC(=O)[O-].CCCCn1cc[n+](C)c1 [1-butyl-3-methylimidazolium acetate] yielded a mass density (298.15 K, Pycnometric method) of 1053 ± 3 kg/m3.
For CCCCn1cc[n+](C)c1.O=S(=O)([O-])C(F)(F)C(F)OC(F)(F)C(F)(F)F (centres undefined), the mass density [1] was 1439 ± 4 kg/m3, the mass density [2] was 1423 ± 4 kg/m3 and the mass density [3] was 1397 ± 4 kg/m3. For the same compound, the mass density [4] was 1372 ± 4 kg/m3.
In the case of CCCCn1cc[n+](C)c1.N#C[S-] [1-butyl-3-methylimidazolium thiocyanate], the mass density (298.65 K, Pycnometric method) is reported as 1067 ± 3 kg/m3.
CCCCn1cc[n+](C)c1.O=S(=O)([O-])C(F)(F)C(F)(F)OC(F)C(F)(F)F (centres undefined) showed a mass density [1] of 1464 ± 4 kg/m3, a mass density [2] of 1449 ± 4 kg/m3 and a mass density [3] of 1425 ± 4 kg/m3. It also gave a mass density [4] of 1401 ± 4 kg/m3.
For CCCC[n+]1ccn(C)c1.O=S(=O)([O-])C(F)(F)C(F)C(F)(F)F (centres undefined), the mass density [1] was 1422 ± 4 kg/m3, the mass density [2] was 1409 ± 4 kg/m3 and the mass density [3] was 1385 ± 4 kg/m3. For the same compound, the mass density [4] was 1364 ± 4 kg/m3.
For CCCCn1cc[n+](C)c1.COS(=O)(=O)[O-] [1-butyl-3-methylimidazolium methyl sulfate], the mass density (298.15 K, Pycnometric method) was 1214 ± 3 kg/m3.
Compound CCCCCCCCCCCCn1cc[n+](C)c1.O=S(=O)([O-])C(F)(F)C(F)F has a mass density (301.35 K, Pycnometric method) of 1136 ± 4 kg/m3.
CCCCn1cc[n+](C)c1.O=S(=O)([O-])C(F)(F)C(F)OC(F)(F)F (centres undefined) showed a mass density [1] of 1409 ± 4 kg/m3, a mass density [2] of 1393 ± 4 kg/m3 and a mass density [3] of 1369 ± 4 kg/m3. For the same compound, the mass density [4] was 1345 ± 4 kg/m3.

From the NIST ThermoML archive (doi:10.1021/je050386z)
